US10526646B2, “Chromogenic peroxidase substrates” (Dako Denmark A/S, priority 2015, dated 2020)
In brackets after ≈: the same amount, converted by molar mass.

Target: T1, HRP (Armoracia rusticana, UniProt P00433)
T1 construct: purchased Dako K4061
T1 sequence (P00433 31-338): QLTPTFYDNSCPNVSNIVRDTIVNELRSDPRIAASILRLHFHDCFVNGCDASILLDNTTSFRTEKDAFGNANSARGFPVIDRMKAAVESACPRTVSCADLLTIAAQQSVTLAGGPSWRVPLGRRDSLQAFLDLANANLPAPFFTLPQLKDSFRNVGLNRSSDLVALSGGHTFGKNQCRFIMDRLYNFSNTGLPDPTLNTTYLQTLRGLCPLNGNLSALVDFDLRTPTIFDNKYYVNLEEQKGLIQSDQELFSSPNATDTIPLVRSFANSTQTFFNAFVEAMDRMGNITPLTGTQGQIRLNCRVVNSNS
Experiment: IHC staining of FFPE human tissues and Her2 control cell lines, Envision+ Dual link HRP visualization, DAB as reference
Design: species or system horse radish
Details: peroxidase substrate moiety varied

| IHC staining performance of Rhodamine 6G derivatives with different 4-hydroxy cinnamic acid derivatives | Structure (SMILES) |
| --- | --- |
| performed poorly | CC/N=c1\cc2oc3cc(NCC)c(C)cc3c(-c3ccccc3C(=O)OCC(=O)NCCOCCOCCNC(=O)/C=C/c3ccc(O)c(O)c3)c-2cc1C [Compound 16, Rhodamine 6G-L12-Caf] |
| strong stains but also some background | CC/N=c1\cc2oc3cc(NCC)c(C)cc3c(-c3ccccc3C(=O)OCC(=O)NCCOCCOCCNC(=O)/C=C/c3ccc(O)cc3O)c-2cc1C [Compound 17, Rhodamine 6G-L12-2,4-OH-Cin] |
| performed acceptably | CC/N=c1\cc2oc3cc(NCC)c(C)cc3c(-c3ccccc3C(=O)OCC(=O)NCCOCCOCCNC(=O)/C=C/c3ccc(O)c(OC)c3)c-2cc1C [Compound 18, Rhodamine 6G-12-Fer] |
| performed poorly | CC/N=c1\cc2oc3cc(NCC)c(C)cc3c(-c3ccccc3C(=O)OCC(=O)NCCOCCOCCNC(=O)/C=C/c3cc(OC)c(O)c(OC)c3)c-2cc1C [Compound 19, Rhodamine 6G-L12-Sin] |

Same assay, conditions: tested in 0.4 to 1 mM

| colour of IHC stain | Structure (SMILES) |
| --- | --- |
| slightly redish purple stains | CN(C)c1ccc2c(-c3ccccc3C(=O)OCC(=O)NCCOCCOCCNC(=O)/C=C/c3ccc(O)cc3)c3ccc(=[N+](C)C)cc-3oc2c1 [Compound 3, TetramethylRhodamine-L12-Cou] |
| purple stains | CCN(CC)c1ccc2c(-c3ccccc3C(=O)OCC(=O)NCCOCCOCCNC(=O)/C=C/c3ccc(O)cc3)c3ccc(=[N+](CC)CC)cc-3oc2c1 [Compound 4, RhodamineB-L12-Cou] |
| slightly purplish red stains | CC/N=c1\cc2oc3cc(NCC)c(C)cc3c(-c3ccccc3C(=O)N3CCN(CC(=O)NCCOCCOCCNC(=O)/C=C/c4ccc(O)cc4)CC3)c-2cc1C [Compound 6, Rhodamine 6G-Pip-L12-Cou] |
| slightly greenish yellow stains | O=C(O)COc1ccc2c(-c3ccccc3C(=O)OCC(=O)NCCOCCOCCNC(=O)/C=C/c3ccc(O)cc3)c3ccc(=O)cc-3oc2c1 [Compound 9, (O-carboxymethyl)-Flu-L12-Cou] |
| red stains | CC/N=c1\cc2oc3cc(NCC)c(C)cc3c(-c3ccccc3C(=O)OCC(=O)NCCNC(=O)/C=C/c3ccc(O)cc3)c-2cc1C [Compound 13, Rho6G-L6-Cou] |
| red stains | CC/N=c1\cc2oc3cc(NCC)c(C)cc3c(-c3ccccc3C(=O)OCCN3CCN(CC(=O)NCCOCCOCCNC(=O)/C=C/c4ccc(O)cc4)CC3)c-2cc1C [Compound 14, Rhodamine 6G-Et-Pip-L12-Cou] |
| deep blue stains | CC/N=c1\cc2oc3cc(NCC)c(C)cc3c(-c3ccccc3C(=O)OCC(=O)NCCOCCOCCNC(=O)COCC(=O)NCCOCCOCCNC(=O)/C=C/c3ccc(O)cc3)c-2cc1C [Compound 15, Rho6G-L27-Cou] |

Same assay, conditions: tested in 0.4 to 1 mM; low and medium expression targets

| stain intensity and crispness compared with DAB | Structure (SMILES) |
| --- | --- |
| matched DAB in intensity and crispness | CCN(CC)c1ccc2c(-c3ccccc3C(=O)OCC(=O)NCCOCCOCCNC(=O)/C=C/c3ccc(O)cc3)c3ccc(=[N+](CC)CC)cc-3oc2c1 [Compound 4, RhodamineB-L12-Cou] |
| matched DAB in intensity and crispness | CC/N=c1\cc2oc3cc(NCC)c(C)cc3c(-c3ccccc3C(=O)N3CCN(CC(=O)NCCOCCOCCNC(=O)/C=C/c4ccc(O)cc4)CC3)c-2cc1C [Compound 6, Rhodamine 6G-Pip-L12-Cou] |
| almost matched DAB in intensity | O=C(O)COc1ccc2c(-c3ccccc3C(=O)OCC(=O)NCCOCCOCCNC(=O)/C=C/c3ccc(O)cc3)c3ccc(=O)cc-3oc2c1 [Compound 9, (O-carboxymethyl)-Flu-L12-Cou] |
| matched DAB in intensity and crispness | CC/N=c1\cc2oc3cc(NCC)c(C)cc3c(-c3ccccc3C(=O)OCC(=O)NCCNC(=O)/C=C/c3ccc(O)cc3)c-2cc1C [Compound 13, Rho6G-L6-Cou] |
| matched DAB in intensity and crispness | CC/N=c1\cc2oc3cc(NCC)c(C)cc3c(-c3ccccc3C(=O)OCCN3CCN(CC(=O)NCCOCCOCCNC(=O)/C=C/c4ccc(O)cc4)CC3)c-2cc1C [Compound 14, Rhodamine 6G-Et-Pip-L12-Cou] |

| Structure (SMILES) | stain intensity and crispness compared with DAB |
| --- | --- |
| CN(C)c1ccc2c(-c3ccccc3C(=O)OCC(=O)NCCOCCOCCNC(=O)/C=C/c3ccc(O)cc3)c3ccc(=[N+](C)C)cc-3oc2c1 [Compound 3, TetramethylRhodamine-L12-Cou] | more than matched DAB in intensity and crispness |
| CC/N=c1\cc2oc3cc(NCC)c(C)cc3c(-c3ccccc3C(=O)OCC(=O)NCCOCCOCCNC(=O)COCC(=O)NCCOCCOCCNC(=O)/C=C/c3ccc(O)cc3)c-2cc1C [Compound 15, Rho6G-L27-Cou] | more than matched DAB in intensity and crispness |

System: not listed separately
Experiment: UV-VIS absorbance maxima of chromogenic conjugates and mixtures
Assay type: physicochemical
Details: not given
Method: “Spectrally narrow” refers to a chromogen having less that 50 nm broadness at its maximum absorbance at half peak height by UV-VIS spectroscopy, measured in +99% water at pH, 6-8 in 10 μM concentration. A “magenta chromogen” is a spectrally narrow chromogen with peak absorbance between 525 and 530 nm, measured in +99% water at pH, 6.0-8.0 in 10 μM concentration. A “greenish-yellow chromogen” is a chromogen with peak absorbance below 475 nm and less than 10% absorbance at 530 nm or above relative to the peak absorbance, measured in +99% water at pH, 6.0-8.0 in 10 μM concentration. A “yellow chromogen” is a chromogen with peak absorbance below 505 nm and less than 10% absorbance at 530 nm or above relative to the peak absorbance, measured in +99% water at pH, 6.0-8.0 in 10 μM concentration. A “cyan chromogen” is a chromogen having maximal absorbance above 615 nm and less than 10% relative absorbance at any wavelength between 530 and 400 nm relative to the peak absorbance, measured in +99% water at pH, 6.0-8.0 m 10 μM concentration. An “orange chromogen” is a “spectrally narrow” chromogen that has maximum absorbance between 495 and 520 nm, measured in +99% water at pH, 6-8 in 10 μM concentration. A “dichroic chromogen” is a chromogen that has at least two absorbance maxima, separated by a local minimum at least 50 nm wide and one further global minimum between 390 and 700 nm measured in water between pH 6 and 8.

| Absp nm (max) [nm] | Structure (SMILES) |
| --- | --- |
| 556 | CN(C)c1ccc2c(-c3ccccc3C(=O)OCC(=O)NCCOCCOCCNC(=O)/C=C/c3ccc(O)cc3)c3ccc(=[N+](C)C)cc-3oc2c1 [Compound 3, TetramethylRhodamine-L12-Cou] |
| 561 | CCN(CC)c1ccc2c(-c3ccccc3C(=O)OCC(=O)NCCOCCOCCNC(=O)/C=C/c3ccc(O)cc3)c3ccc(=[N+](CC)CC)cc-3oc2c1 [Compound 4, RhodamineB-L12-Cou] |
| 536 | CC/N=c1\cc2oc3cc(NCC)c(C)cc3c(-c3ccccc3C(=O)N3CCN(CC(=O)NCCOCCOCCNC(=O)/C=C/c4ccc(O)cc4)CC3)c-2cc1C [Compound 6, Rhodamine 6G-Pip-L12-Cou] |
| 458 | O=C(O)COc1ccc2c(-c3ccccc3C(=O)OCC(=O)NCCOCCOCCNC(=O)/C=C/c3ccc(O)cc3)c3ccc(=O)cc-3oc2c1 [Compound 9, (O-carboxymethyl)-Flu-L12-Cou] |
| 532 | CC/N=c1\cc2oc3cc(NCC)c(C)cc3c(-c3ccccc3C(=O)OCC(=O)NCCNC(=O)/C=C/c3ccc(O)cc3)c-2cc1C [Compound 13, Rho6G-L6-Cou] |
| 531 | CC/N=c1\cc2oc3cc(NCC)c(C)cc3c(-c3ccccc3C(=O)OCCN3CCN(CC(=O)NCCOCCOCCNC(=O)/C=C/c4ccc(O)cc4)CC3)c-2cc1C [Compound 14, Rhodamine 6G-Et-Pip-L12-Cou] |
| 533 | CC/N=c1\cc2oc3cc(NCC)c(C)cc3c(-c3ccccc3C(=O)OCC(=O)NCCOCCOCCNC(=O)COCC(=O)NCCOCCOCCNC(=O)/C=C/c3ccc(O)cc3)c-2cc1C [Compound 15, Rho6G-L27-Cou] |
| 531 | CC/N=c1\cc2oc3cc(NCC)c(C)cc3c(-c3ccccc3C(=O)OCC(=O)NCCOCCOCCNC(=O)/C=C/c3ccc(O)c(O)c3)c-2cc1C [Compound 16, Rhodamine 6G-L12-Caf] |
| 531 | CC/N=c1\cc2oc3cc(NCC)c(C)cc3c(-c3ccccc3C(=O)OCC(=O)NCCOCCOCCNC(=O)/C=C/c3ccc(O)cc3O)c-2cc1C [Compound 17, Rhodamine 6G-L12-2,4-OH-Cin] |
| 531 | CC/N=c1\cc2oc3cc(NCC)c(C)cc3c(-c3ccccc3C(=O)OCC(=O)NCCOCCOCCNC(=O)/C=C/c3ccc(O)c(OC)c3)c-2cc1C [Compound 18, Rhodamine 6G-12-Fer] |
| 531 | CC/N=c1\cc2oc3cc(NCC)c(C)cc3c(-c3ccccc3C(=O)OCC(=O)NCCOCCOCCNC(=O)/C=C/c3cc(OC)c(O)c(OC)c3)c-2cc1C [Compound 19, Rhodamine 6G-L12-Sin] |

Target: T1, HRP
Experiment: Tissue staining with mixtures of chromogens in chromogen buffer
Design: species or system horse radish
Details: alone

| colour of stain of compound alone | Structure (SMILES) |
| --- | --- |
| unpleasing greenish yellow | O=C(O)COc1ccc2c(-c3ccccc3C(=O)OCC(=O)NCCOCCOCCNC(=O)/C=C/c3ccc(O)cc3)c3ccc(=O)cc-3oc2c1 [Compound 9, (O-carboxymethyl)-Flu-L12-Cou] |

System: not listed separately
Experiment: Solubility in substrate buffer as function of percentage of NMP
Assay type: physicochemical
Details: imidazole:HCl buffer (substrate buffer) with 3% NMP, aqueous buffer; 3% NMP in 50 mM imidazole:HCl pH 6.8
Method: Only Compound 6 having a piperazine amide stands out by absorbing at 536 nm, around 5 nm above the esters comprising Compounds 2, 13, 14 and 15 all with abs max within 531-533 nm. […] Addition of NMP to the buffer in all cases increased chromogen solubility. See result table below of the solubility of 2, 13 and 15 as function of percentage of NMP as organic co solvent, 0% representing neat aqueous buffer 50 mM imidazole: HCl, pH 6.8, 3% and 10% said percent.

| solubility [µM] | Structure (SMILES) |
| --- | --- |
| 900 (≈ 595 µg/mL) | CC/N=c1\cc2oc3cc(NCC)c(C)cc3c(-c3ccccc3C(=O)OCC(=O)NCCNC(=O)/C=C/c3ccc(O)cc3)c-2cc1C [Compound 13, Rho6G-L6-Cou] |
| 1900 (≈ 1890 µg/mL) | CC/N=c1\cc2oc3cc(NCC)c(C)cc3c(-c3ccccc3C(=O)OCC(=O)NCCOCCOCCNC(=O)COCC(=O)NCCOCCOCCNC(=O)/C=C/c3ccc(O)cc3)c-2cc1C [Compound 15, Rho6G-L27-Cou] |

Same assay, conditions: imidazole:HCl buffer (substrate buffer) with 10% NMP, aqueous with cosolvent or surfactant or cyclodextrin; 10% NMP in 50 mM imidazole:HCl pH 6.8

| solubility [µM] | Structure (SMILES) |
| --- | --- |
| 1800 (≈ 1190 µg/mL) | CC/N=c1\cc2oc3cc(NCC)c(C)cc3c(-c3ccccc3C(=O)OCC(=O)NCCNC(=O)/C=C/c3ccc(O)cc3)c-2cc1C [Compound 13, Rho6G-L6-Cou] |
| 6000 to 7000 (≈ 5970 to 6970 µg/mL) | CC/N=c1\cc2oc3cc(NCC)c(C)cc3c(-c3ccccc3C(=O)OCC(=O)NCCOCCOCCNC(=O)COCC(=O)NCCOCCOCCNC(=O)/C=C/c3ccc(O)cc3)c-2cc1C [Compound 15, Rho6G-L27-Cou] |

Same assay, conditions: imidazole:HCl buffer (substrate buffer); 0% NMP, neat aqueous buffer 50 mM imidazole:HCl pH 6.8

| solubility [µM] | Structure (SMILES) |
| --- | --- |
| 500 (≈ 330 µg/mL) | CC/N=c1\cc2oc3cc(NCC)c(C)cc3c(-c3ccccc3C(=O)OCC(=O)NCCNC(=O)/C=C/c3ccc(O)cc3)c-2cc1C [Compound 13, Rho6G-L6-Cou] |
| 1700 (≈ 1690 µg/mL) | CC/N=c1\cc2oc3cc(NCC)c(C)cc3c(-c3ccccc3C(=O)OCC(=O)NCCOCCOCCNC(=O)COCC(=O)NCCOCCOCCNC(=O)/C=C/c3ccc(O)cc3)c-2cc1C [Compound 15, Rho6G-L27-Cou] |

Same assay, conditions: substrate buffer

| solubility in the substrate buffer relative to Compound 2 | Structure (SMILES) |
| --- | --- |
| significantly increased solubility | CC/N=c1\cc2oc3cc(NCC)c(C)cc3c(-c3ccccc3C(=O)N3CCN(CC(=O)NCCOCCOCCNC(=O)/C=C/c4ccc(O)cc4)CC3)c-2cc1C [Compound 6, Rhodamine 6G-Pip-L12-Cou] |
| reduced solubility | CC/N=c1\cc2oc3cc(NCC)c(C)cc3c(-c3ccccc3C(=O)OCC(=O)NCCNC(=O)/C=C/c3ccc(O)cc3)c-2cc1C [Compound 13, Rho6G-L6-Cou] |
| significantly increased solubility | CC/N=c1\cc2oc3cc(NCC)c(C)cc3c(-c3ccccc3C(=O)OCCN3CCN(CC(=O)NCCOCCOCCNC(=O)/C=C/c4ccc(O)cc4)CC3)c-2cc1C [Compound 14, Rhodamine 6G-Et-Pip-L12-Cou] |
| significantly increased solubility | CC/N=c1\cc2oc3cc(NCC)c(C)cc3c(-c3ccccc3C(=O)OCC(=O)NCCOCCOCCNC(=O)COCC(=O)NCCOCCOCCNC(=O)/C=C/c3ccc(O)cc3)c-2cc1C [Compound 15, Rho6G-L27-Cou] |
